Laboratory results reported in US8758769B2, “Composition for preventing and treating acetaminophen inducing liver injury comprising the protein extract from Porphyra yezoensis” (Pukyong National University Industry Academic Cooperation …, priority 2006, dated 2014).

Experiments:
GOT and GPT in the serum = assay: GOT and GPT in serum; type: in vivo, rat; settings: rats, AAP 700 mg/kg, 24 hours
Method: GOT and GPT in the serum as liver function indicators are enzymes which reflect the change and necrosis of the liver cell and spilled in great quantities in the blood when damaging the liver tissue. GOT/GPT in the serum are measured by using a kit for measuring GOT (Glutamic oxaloacetic transaminase) and GPT (Glutamic pyruvic transaminase) activity measuring serum transaminase (Shinyang Chemistry, Republic of Korea) manufactured by Retiman-Frankle's manner through a spectrum photometer (Ultrospec 2001 pro. amersham phamasia biotech, United Kingdom) at 505 nm and then the result is shown in FIG. 4.

HepG2 liver cell = assay: LDH activity, toxicity of HepG2 liver cell by AAP treatment; type: cell-based; settings: HepG2, AAP 10, 20 and 40 mM
Method: To examine the toxicity of the liver cell by the AAP treatment, the activity of LDH is measured. That is, 100[…] per a well with the concentration of 2×10^4 cells/ml is divided into 96-well microplates (palcon, USA) and cultured. After 24 hours, a medium is replaced with an MEM medium including 1% FBS, then cultured again for 24 hours, and thereafter treated by an assay medium of 100[…] and AAP 100[…] (10, 20 and 40 mM). The obtained upper solution of 100[…] is moved into a new 96-well microplate, then 100[…] of the reaction mixture (solution I 250[…]+solution II 11.25[…]) is added to the new 96-well microplate. Thereafter, at the state that the light is intercepted by foil, a reaction is progressed for 30 minutes at 15˜25° C. Thereafter, the absorbance at 490 nm is measured by using an automatic ELIZA reader.

HepG2 cell = assay: Cell apoptosis of the liver cell line by AAP (DAPI dyeing, DNA fragmentation); type: cell-based; settings: HepG2, culture for 24 hours with AAP
Text: Accordingly, to confirm that the cell proliferation inhibition effect by AAP is a phenomenon by the cell apoptosis, the cell with AAP and cell with no AAP are washed by PBS by means of the characteristics in which only DNA within the cell nucleus, especially, only the cell apoptosis DNA is dyed. Thereafter, the cells are dyed by the DAPI solution and then observed by a fluorescent microscopy.
Specifically, the HepG2 cell treated by the seaweed protein is washed by PBS, fixed at the room temperature for 10 minutes by 3.7% of paraformaldehyde, and dyed by means of the 4,6-diamindino-2-phenylindole (DAPI)(sigma) solution as fluorescent materials for 10 minutes. These cells are again washed by twice and the form change of the nucleus thereof is compared with that of the normal group by means of a fluorescence microscope.
To examine the DNA fragmentation phenomenon, the seaweed protein purified by the example 1 is added to the liver cell by concentration (0˜100[…]/□), then cultured for 24 hours, and thereafter mixed with the homogenate (nuclear lysis buffer, 100 mM NaCl2, 40 mM Tris-Cl, pH 7.4, 20 mM EDTA, 0.5% SDS). […] 10[…] of DNA is treated by an electrophoresis manner (50V, 2 hours) in the agarose cell, dyed by editium bromide, and measured by means of ultraviolet rays and the like.

[1] = system: PCNA and caspase-3 in liver cell; assay: Liver cell injury inhibition by seaweed protein: PCNA and caspase-3 expression (western blot); type: cell-based; settings: 20 mM AAP with or without seaweed protein
Method: Through the above results, it is confirmed that the cell apoptosis of the liver cell is induced by the increase of the AAP concentration and accordingly, the seaweed protein and AAP are processed together and the liver injury inhibition effect of the seaweed protein by AAP is confirmed.
At first, the degree of the PCNA protein expression capable of securing the recovery of the injured cell is confirmed. For this, a liver tissue is homogenized by lysis buffer (25 mM HEPES, pH 7.5, 5 mM EDTA, 2 mM DTT, 0.1% CHAPS) containing the protease inhibitor and then centrifuged by 14,000×g at 4° C. Thereafter, the protein concentration of the obtained upper layer solution is measured by means of a BCA protein assay kit. A loading process is performed by 50[…] per each lane, an electrophoresis process is performed by SDS-PAGE, and thereafter it is moved toward the PVDF membrane (Millipore, USA). At this time, the rainbow molecular marker (amersham) is used as the standard molecular weight. In the separated protein, the expressin of the caspase-3 protein is confirmed by means of Super Signal West Pico Chemiluminescent Substrate (pierce biotechnology incorporation, USA). […]

[2] = rats, mean ± S.D. of 10 per group; AAP 700 mg/kg into the abdominal cavity, seaweed protein orally for two weeks
Method: Animals for the experiment are male rats (body weight of 100±10 g), as Sparague Dawley of four-week-old, obtained from Hyochang science. 10 rats are divided into three groups, respectively (control group, AAP sole administration group and AAP+seaweed protein administration group), bred in row breeding cages for 7 days as a domestication preparation breeding. At this time, the temperature (22±1° C.), humidity (50±10%) and brightness (12 hours, 08˜18:00) of a breeding room are strictly controlled. After performing the domestication preparation breeding, general feed and water are freely supplied and then a saline solution (control group and AAP sole administration group) and the seaweed protein are orally administrated for two weeks. 700 mg/kg of AAP melted by DMSO is administrated into the abdominal cavity and after 24 hours, heads of rats are cut and then a blood-gathering process is performed. […] And the liver is extracted and washed by the saline solution and thereafter the weight thereof is measured and a part thereof is fixed into the bouin solution (picric acid:formalin:glacial acid=15:5:1). […]
To examine the influence on the liver tissue, liver weight and the change of body weight of the seaweed protein separated and purified at the example 1, the liver tissue of a rat is extracted and its weight is measured.

In the case of `CC(=O)Nc1ccc(O)cc1` [AAP, Acetaminophen], the GPT in serum (GOT and GPT in the serum; control group 28.83±7.9) is reported as 44.83±11.7 karmen, the GOT in serum (GOT and GPT in the serum; control group 158.97±13.4) is reported as 187.95±20.7 karmen and the “Activity of LDH (degree of liver cell injury)” value (HepG2 liver cell) is reported as “increased in proportion to the AAP concentration”. For the same compound, the “Cell apoptosis by DAPI dyeing (FIG. 8)” value (HepG2 cell) was “many cell apoptosis modes with the red color are formed”, the “DNA fragmentation in liver cell (FIG. 8)” value (HepG2 cell) was “The DNA fractions are confirmed identically” and the “Cleaved caspase-3 with activation (FIG. 9)” value [1] was “the activated and cleaved caspase-3 is increased”. For the same compound, the Final body weight [2] was 299 ± 14.92 g and the Weight of liver [2] was 10.86 ± 0.9 g.
